Columns and labels:
Assay type in all cases: cell-based, human
[1] = system: 22RV1 cells; experiment: 22RV1 cell proliferation, ASO in combination with MDV3100 (Example 22); conditions: Homo sapiens, 22Rv1, read-out: inhibited proliferation, MDV3100 with control oligonucleotide ISIS 549148
Experimental: 22RV1 cells were plated at 2,000 cells per well in 5% CSS medium for 48 hours. […] ISIS 549148 was included as a negative control. […] After a treatment period of 3 days, the proliferative capacity of the cancer cells was measured with CellTiter 96® AQueous One Solution Cell Proliferation kit (Promega), following the manufacturer's instructions. Results are presented in Tables 58-62 as percent inhibition of proliferation, relative to non-treated cells.

[2] = system: prostate-specific antigen (PSA) mRNA; experiment: PSA mRNA levels in LMR20 cells; conditions: for PSA mRNA levels (% baseline value) after treatment with DHT / PSA mRNA levels (% baseline value) after treatment with R1881 / PSA mRNA levels (% baseline value) of cells without AR agonist treatment: LMR20 cells; for PSA mRNA levels (% baseline value) after treatment with DHT: DHT 10 nM 72 hrs; for PSA mRNA levels (% baseline value) after treatment with R1881: R1881 10 nM 72 hrs; for PSA mRNA levels (% baseline value) of cells without AR agonist treatment: no AR agonist
Experimental: LMR20 cells were plated at 1,500 cells per well in phenol red-free medium with CSS. […] Results are presented in Tables 43-45 as mRNA levels expressed as a percentage of the baseline values. mRNA levels may be lowered or increased after treatment.

[3] = system: C4-2 cells; experiment: C4-2 cell proliferation (complete or CSS+DHT medium); conditions: 5 days; for Proliferation (% untreated control): C4-2 cells
Experimental: After a treatment period of 5 days in complete medium or CSS+1 nM DHT medium, the proliferative capacity of the cancer cells was measured with using CellTiter 96® AQueous One Solution or CellTiter-Glo® Cell Proliferation kit (Promega), following the manufacturer's instructions. […] The proliferative capacity of cells cultured in CSS medium without DHT is 17% of untreated control levels.

[4] = system: TMPRSS2 mRNA; experiment: TMPRSS2 expression in C4-2 cells; conditions: 48 hrs; for Percent inhibition of TMPRSS2 expression: C4-2 cells, CSS + DHT medium
Experimental: Cells were plated at 1,000 cells per well. […] After an incubation period of 48 hrs, RNA levels of AR, PSA and TMPRSS2 were measured.
Cells were plated at 2,000 cells per well and cultured in CSS media with 1 nM DHT. […] After an incubation period of 48 hrs, RNA levels of AR, PSA and TMPRSS2 were measured.

[5] = system: C4-2B cells; experiment: C4-2B cell proliferation, ASO in combination with MDV3100 (Example 21); conditions: Homo sapiens, read-out: inhibited proliferation, MDV3100 with control oligonucleotide ISIS 549148
Experimental: C4-2B cells were plated at 1,000 cells per well. […] ISIS 549148 was included as a negative control. […] After a treatment period of 5 days, the proliferative capacity of the cancer cells was measured with CellTiter 96® AQueous One Solution Cell Proliferation kit (Promega), following the manufacturer's instructions. […]

[6] = system: LNCaP cells; experiment: LNCaP cell proliferation (complete or CSS+DHT medium); conditions: 5 days; for Proliferation (% untreated control) in LNCaP cells cultured in CSS + DHT medium: CSS + 1 nM DHT medium
Experimental: After a treatment period of 5 days in complete medium or CSS+1 nM DHT medium, the proliferative capacity of the cancer cells was measured with using CellTiter 96® AQueous One Solution or CellTiter-Glo® solution Cell Proliferation kit (Promega), following the manufacturer's instructions. […] Treatment with ISIS oligonucleotides in CSS+DHT medium reduced the proliferative capacity to a greater extent than treatment with MVD-3100. The proliferative capacity of cells cultured in CSS medium without DHT is 17% of untreated control levels.

[7] = complete medium or CSS+1 nM DHT

CNC(=O)c1ccc(N2C(=S)N(c3ccc(C#N)c(C(F)(F)F)c3)C(=O)C2(C)C)cc1F [MDV3100, 4-(3-(4-cyano-3-(trifluoromethyl)phenyl)-5,5-dimethyl-4-oxo-2-thioxoimidazolidin-1-yl)-2-fluoro-N-methylbenzamide, reference compound]
inhibition at 1 µM [1]: 5%
PSA mRNA levels (% baseline value) after treatment with DHT ([2]; ASO 0.04 μM): 124 % baseline value
PSA mRNA levels (% baseline value) after treatment with DHT ([2]; ASO 0.20 μM): 108 % baseline value
PSA mRNA levels (% baseline value) after treatment with DHT ([2]; ASO 1.0 μM): 95 % baseline value
PSA mRNA levels (% baseline value) after treatment with DHT ([2]; ASO 5.0 μM): 95 % baseline value
PSA mRNA levels (% baseline value) after treatment with R1881 ([2]; ASO 0.04 μM): 84 % baseline value
PSA mRNA levels (% baseline value) after treatment with R1881 ([2]; ASO 0.20 μM): 101 % baseline value
PSA mRNA levels (% baseline value) after treatment with R1881 ([2]; ASO 1.0 μM): 92 % baseline value
PSA mRNA levels (% baseline value) after treatment with R1881 ([2]; ASO 5.0 μM): 87 % baseline value
PSA mRNA levels (% baseline value) of cells without AR agonist treatment ([2]; ASO 0.04 μM): 98 % baseline value
PSA mRNA levels (% baseline value) of cells without AR agonist treatment ([2]; ASO 0.20 μM): 93 % baseline value
PSA mRNA levels (% baseline value) of cells without AR agonist treatment ([2]; ASO 1.0 μM): 90 % baseline value
PSA mRNA levels (% baseline value) of cells without AR agonist treatment ([2]; ASO 5.0 μM): 113 % baseline value
PSA mRNA levels in LMR20 cells ([2]; with or without DHT/R1881): did not reduce either PSA or TMPRSS2 mRNA levels
Proliferation (% untreated control) ([3]; CSS + DHT medium, 0.04 μM): 122 % untreated control
Proliferation (% untreated control) ([3]; CSS + DHT medium, 0.2 μM): 124 % untreated control
Proliferation (% untreated control) ([3]; CSS + DHT medium, 1 μM): 87 % untreated control
Proliferation (% untreated control) ([3]; CSS + DHT medium, 5.0 μM): 22 % untreated control
Proliferation (% untreated control) ([3]; complete medium, 0.04 μM): 105 % untreated control
Proliferation (% untreated control) ([3]; complete medium, 0.2 μM): 108 % untreated control
Proliferation (% untreated control) ([3]; complete medium, 1 μM): 71 % untreated control
Proliferation (% untreated control) ([3]; complete medium, 5.0 μM): 67 % untreated control
proliferation of C4-2 cells [3, 7]: reduced proliferation of the cells in a dose dependent manner compared to the control
Percent inhibition of TMPRSS2 expression ([4]; 0.04 μM): 9%
Percent inhibition of TMPRSS2 expression ([4]; 0.2 μM): 0%
Percent inhibition of TMPRSS2 expression ([4]; 1 μM): 44%
Percent inhibition of TMPRSS2 expression ([4]; 5.0 μM): 78%
Percent inhibition of TMPRSS2 expression in C4-2 cells cultured in complete medium ([4]; 0.04 μM): 10%
Percent inhibition of TMPRSS2 expression in C4-2 cells cultured in complete medium ([4]; 0.2 μM): 20%
Percent inhibition of TMPRSS2 expression in C4-2 cells cultured in complete medium ([4]; 1 μM): 44%
Percent inhibition of TMPRSS2 expression in C4-2 cells cultured in complete medium ([4]; 5.0 μM): 67%
inhibition at 0.08 µM [5]: 0%
inhibition at 0.4 µM [5]: 6%
Proliferation (% untreated control) in LNCaP cells cultured in CSS + DHT medium ([6]; 0.04 μM): 112 % untreated control
Proliferation (% untreated control) in LNCaP cells cultured in CSS + DHT medium ([6]; 0.2 μM): 95 % untreated control
Proliferation (% untreated control) in LNCaP cells cultured in CSS + DHT medium ([6]; 1 μM): 74 % untreated control
Proliferation (% untreated control) in LNCaP cells cultured in CSS + DHT medium ([6]; 5.0 μM): 33 % untreated control
proliferation of LNCaP cells [6, 7]: reduced proliferation of the cells in a dose dependent compared to the control
Proliferation (% untreated control) in LNCaP cells cultured in complete medium ([6]; 0.04 μM): 107 % untreated control
Proliferation (% untreated control) in LNCaP cells cultured in complete medium ([6]; 0.2 μM): 88 % untreated control
Proliferation (% untreated control) in LNCaP cells cultured in complete medium ([6]; 1 μM): 65 % untreated control
Proliferation (% untreated control) in LNCaP cells cultured in complete medium ([6]; 5.0 μM): 45 % untreated control
